CC50 and EC50 data for 24 compounds are collected here from patent publication US8536187B2 (Gilead Sciences, Inc., priority 2008, dated 2013).

Series [1] is described as follows: CC50 assay (CellTiter-Glo) in Huh-7 HCV replicon cells. Particulars: human. The class given is cell-based. Put shortly:
(§1)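 Huh-7 cells carrying HCV replicon (6000/well) incubated with serially diluted compound, 0.5% DMSO final, 3 days at 37° C, 5% CO2. EC50 from luciferase luminescence after 30 min lysis/substrate at room temperature; CC50 from CellTiter-Glo luminescence after 10 min at room temperature.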
A general note: ATP-based viability assays read luminescence as a measure of living cells.

The test system of series [2] is HCV replicon in human hepatoma Huh-7 cell line. Put plainly: Anti-HCV replicon assay, EC50 (luciferase luminescence). It counts as cell-based. Particulars: Hepatitis C virus, Huh-7, 72 h. Put shortly:
as §1
(In general: In antiviral work, replicon cells carry a viral genome segment that copies itself.)

pEC50: −log10 of the molar value.

Usually CC50 stands for the concentration at which the toxic effect on the cells reaches its halfway point. Lower therefore signals greater toxicity to the cells. Broadly, the pEC50 is the negative decadic logarithm of the EC50, by convention in mol/L. A low value points to a high EC50. Compound `NS(=O)(=O)c1ccc(CNc2nc(NC3(C(F)(F)F)CC3)c3nc(-c4ccc(OC(F)F)cc4)ccc3n2)cc1` [Example 61, 4-((6-(4-(difluoromethoxy)phenyl)-4-(1-(trifluoromethyl)cyclopropylamino)pyrido[3,2-d]pyrimidin-2-ylamino)methyl) benzenesulfonamide] displayed a CC50 at 3 days in series [1] (Table 2, 3 days incubation) of 1000 to 10000 nM. Besides, the negative logarithm of the EC50 (pEC50) in series [2] is more than 7.00.
Regarding `CC(Nc1nc(NCC(F)(F)F)c2nc(-c3cccc(S(C)(=O)=O)c3)ccc2n1)c1ccc(-n2cncn2)cc1` (stereo not drawn) [Example 19, 6-(3-Methanesulfonyl-phenyl)-N2-[1-(4-[1,2,4]triazol-1-yl-phenyl)-ethyl]-N4-(2,2,2-trifluoro-ethyl)-pyrido[3,2-d]pyrimidine-2,4-diamine], the 50% cytotoxic concentration (CC50) at 3 days in series [1] (Table 1, 3 days incubation) lay in the range of 10000 to 25000 nM. Further, the pEC50 in series [2] was more than 7.00.
In series [1] (Table 2, 3 days incubation), `N#Cc1cc(CNc2nc(NC3(C(F)(F)F)CC3)c3nc(-c4ccc(F)cc4)ccc3n2)cc(S(N)(=O)=O)c1` [Example 49, 3-cyano-5-((6-(4-fluorophenyl)-4-(1-(trifluoromethyl)cyclopropyl-amino)pyrido[3,2-d]pyrimidin-2-ylamino)methyl)benzene-sulfonamide] yielded a CC50 at 3 days of more than 10000 nM. In series [2], this compound had a pEC50 of more than 7.00.
The like results for `CC1(Oc2nc(NCc3ccc(-n4cncn4)cc3)nc3ccc(-c4ccc(OC5CC5)nc4)nc23)CC1` [Example 247, N-(4-(1H-1,2,4-triazol-1-yl)benzyl)-6-(6-cyclopropoxy-pyridin-3-yl)-4-(1-methylcyclo-propoxy)pyrido[3,2-d]pyrimidin-2-amine] were, in that order, 1000 to 10000 nM and more than 7.00.
For `Nc1ccc(-c2ccc3nc(NCc4cccc(-n5cncn5)c4)nc(NC4(C(F)(F)F)CC4)c3n2)cn1` [Example 73, N^2-(3-(1H-1,2,4-triazol-1-yl)benzyl)-6-(6-aminopyridin-3-yl)-N^4-(1-(trifluoromethyl)cyclopropyl)pyrido[3,2-d] pyrimidine-2,4-diamine], in that order: 1000 to 10000 nM and more than 7.00.
`C[C@@H](Nc1nc(NCC(F)(F)F)c2nc(C#CC(C)(C)O)ccc2n1)c1ccc(S(N)(=O)=O)cc1` [Example 276, (R)-4-(1-(6-(3-hydroxy-3-methylbut-1-ynyl)-4-(2,2,2-trifluoroethylamino)pyrido [3,2-d]pyrimidin-2-ylamino)ethyl)benzenesulfonamide]: the half-maximal cytotoxic concentration (CC50) at 3 days in series [1] (Table 2, 3 days incubation) is more than 10000 nM. The pEC50 in series [2] was 5.70 to 6.60.
As for `COc1ccc(-c2ccc3nc(N[C@H](C)c4ccc(-n5cncn5)cc4)nc(NC4(C(F)(F)F)CC4)c3n2)cc1S(C)(=O)=O` [Example 94, N^2-((R)-1-(4-(1H-1,2,4-triazol-1-yl)phenyl)ethyl)-6-(4-methoxy-3-(methylsulfonyl)phenyl)-N^4-(1-(trifluoromethyl)cyclopropyl) pyrido[3,2-d]pyrimidine-2,4-diamine], the CC50 at 3 days in series [1] (Table 2, 3 days incubation) is 1000 to 10000 nM. Further, the pEC50 in series [2] was more than 7.00.
The like results for `COc1ccc(-c2ccc3nc(NCc4ccc(S(N)(=O)=O)cc4)nc(NC4(C(F)(F)F)CC4)c3n2)cc1C(F)(F)F` [Example 75, 4-((6-(4-methoxy-3-(trifluoromethyl)phenyl)-4-(1-(trifluoromethyl)cyclopropyl-amino)pyrido[3,2-d]pyrimidin-2-ylamino)methyl)benzene-sulfonamide] were, in that order, more than 10000 nM and 5.70 to 6.60.
With `COc1ccc(-c2ccc3nc(NCc4cccnc4)nc(NCC(F)(F)F)c3n2)cc1S(C)(=O)=O` [Example 166, 6-(4-methoxy-3-(methylsulfonyl)phenyl)-N^2-(pyridin-3-ylmethyl)-N^4-(2,2,2-trifluoroethyl)pyrido [3,2-d]pyrimidine-2,4-diamine], the CC50 at 3 days in series [1] (Table 2, 3 days incubation) lay in the range of 1000 to 10000 nM. Also, in series [2], the pEC50 was more than 7.00.
For `CC#Cc1ccc2nc(N[C@H](C)c3ccc(S(N)(=O)=O)cc3)nc(NCC(F)(F)F)c2n1` [Example 298, (R)-4-(1-(6-(prop-1-ynyl)-4-(2,2,2-trifluoroethylamino)pyrido[3,2-d]pyrimidin-2-ylamino)ethyl)benzene-sulfonamide], in that order: more than 10000 nM and more than 7.00.
In series [1] (Table 2, 3 days incubation), `CC(C)Oc1ccc(-c2ccc3nc(NCc4ccc(-n5cccn5)cc4)nc(NCC(F)(F)F)c3n2)cn1` [Example 242, N^2-(4-(1H-pyrazol-1-yl)benzyl)-6-(6-isopropoxypyridin-3-yl)-N^4-(2,2,2-trifluoroethyl)pyrido [3,2-d]pyrimidine-2,4-diamine] had a 50% cytotoxic concentration (CC50) at 3 days of 1000 to 10000 nM. The same compound gave a negative-log EC50 (pEC50) in series [2] of more than 7.00.
Take `CCOc1ccc(-c2ccc3nc(N[C@H](C)c4ccc(-n5cncn5)cc4)nc(NCC(F)(F)F)c3n2)cc1S(N)(=O)=O` [Example 265, 5-(2-((R)-1-(4-(1H-1,2,4-triazol-1-yl)phenyl)ethylamino)-4-(2,2,2-trifluoroethylamino)pyrido [3,2-d]pyrimidin-6-yl)-2-ethoxybenzenesulfonamide]: the CC50 at 3 days in series [1] (Table 2, 3 days incubation) lay within 1000 to 10000 nM. In addition, the pEC50 in series [2] is more than 7.00.
For `Cc1ccc(-c2ccc3nc(NCc4ccc(S(N)(=O)=O)cc4)nc(NCC(F)(F)F)c3n2)cc1S(C)(=O)=O` [Example 143, 4-((6-(4-methyl-3-(methylsulfonyl)phenyl)-4-(2,2,2-trifluoroethylamino)pyrido[3,2-d]pyrimidin-2-ylamino)methyl)benzene-sulfonamide], the 50% cytotoxic concentration (CC50) at 3 days in series [1] (Table 2, 3 days incubation) was more than 10000 nM. Moreover, the negative-log EC50 (pEC50) in series [2] was more than 7.00.
The like results for `CC#Cc1ccc2nc(NCc3cc(Cl)cc(S(N)(=O)=O)c3)nc(OC3(C)CC3)c2n1` [Example 311, 3-chloro-5-((4-(1-methylcyclo-propoxy)-6-(prop-1-ynyl)pyrido [3,2-d]pyrimidin-2-ylamino)methyl)benzenesulfonamide] were, in that order, more than 10000 nM and more than 7.00.
The like results for `C[C@@H](Nc1nc(NCC(F)(F)F)c2nc(-c3cccc(S(C)(=O)=O)c3)ccc2n1)c1ccc(S(=O)(=O)NC(C)(C)C)cc1` [Example 136, N-tert-butyl-4-((R)-1-(6-(3-(methylsulfonyl)phenyl)-4-(2,2,2-trifluoroethylamino)pyrido[3,2-d]pyrimidin-2-ylamino)ethyl)benzene-sulfonamide] were, in that order, more than 10000 nM and more than 7.00.
The like results for `CCOc1nc(N[C@H](C)c2ccc(S(N)(=O)=O)cc2)nc2ccc(C#CC3CC3)nc12` [Example 316, (R)-4-(1-(6-(2-cyclopropyl-ethynyl)-4-ethoxypyrido [3,2-d]pyrimidin-2-ylamino)ethyl)benzenesulfonamide] were, in that order, more than 10000 nM and 6.60 to 7.00.
Compound `C[C@@H](Nc1nc(NCC(F)(F)F)c2nc(C#Cc3cncs3)ccc2n1)c1ccc(S(N)(=O)=O)cc1` [Example 297, (R)-4-(1-(6-(2-(thiazol-5-yl)ethynyl)-4-(2,2,2-trifluoro-ethylamino)pyrido[3,2-d]pyrimidin-2-ylamino)ethyl) benzenesulfonamide] showed a 50% cytotoxic concentration (CC50) at 3 days in series [1] (Table 2, 3 days incubation) of more than 10000 nM. The pEC50 in series [2] was 5.70 to 6.60.
The like results for `NS(=O)(=O)c1cc(F)cc(CNc2nc(NC3(C(F)(F)F)CC3)c3nc(-c4ccc(F)cc4)ccc3n2)c1` [Example 115, 3-fluoro-5-((6-(4-fluorophenyl)-4-(1-(trifluoromethyl)cyclopropyl-amino)pyrido[3,2-d]pyrimidin-2-ylamino)methyl)benzene-sulfonamide] were, in that order, 1000 to 10000 nM and more than 7.00.
The like results for `C[C@@H](Nc1nc(NC2(C(F)(F)F)CC2)c2nc(-c3ccc(F)cc3)ccc2n1)c1ccc(S(N)(=O)=O)cc1` [Example 24, (R)-4-{1-[6-(4-fluorophenyl)-4-(1-trifluoromethyl-cyclopropylamino)-pyrido[3,2-d]pyrimidin-2-ylamino]-ethyl}-benzenesulfonamide] were, in that order, more than 10000 nM and more than 7.00.
For `NS(=O)(=O)c1cc(CNc2nc(NC3(C(F)(F)F)CC3)c3nc(-c4ccc(F)cc4)ccc3n2)cc(C(F)(F)F)c1` [Example 26, 3-{[6-(4-fluorophenyl)-4-(1-trifluoromethyl-cyclopropylamino)-pyrido[3,2-d]pyrimidin-2-ylamino]-methyl}-5-trifluoromethyl-benzenesulfonamide], in that order: more than 10000 nM and 6.60 to 7.00.
`COc1ccc(-c2ccc3nc(NCc4cc(F)cc(F)c4)nc(NC4(C(F)(F)F)CC4)c3n2)cc1S(C)(=O)=O` [Example 40, N^2-(3,5-difluorobenzyl)-6-(4-methoxy-3-(methylsulfonyl)phenyl)-N^4-(1-(trifluoromethyl)cyclopropyl)pyrido[3,2-d] pyrimidine-2,4-diamine] returned a CC50 at 3 days in series [1] (Table 2, 3 days incubation) of 1000 to 10000 nM. The negative-log EC50 (pEC50) in series [2] was more than 7.00.
In series [1] (Table 2, 3 days incubation), `NS(=O)(=O)c1ccc(CNc2nc(NC3(C(F)(F)F)CC3)c3nc(-c4ccc(N5CCCS5(=O)=O)cc4)ccc3n2)cc1` [Example 130, 4-((6-(4-(1,1-dioxo-isothiazolidin-2-yl)phenyl)-4-(1-(trifluoromethyl)cyclopropyl-amino)pyrido[3,2-d]pyrimidin-2-ylamino)methyl)benzene-sulfonamide] returned a cytotoxic concentration (CC50) at 3 days of less than 1000 nM. This compound gave a pEC50 in series [2] of more than 7.00.
For `FC(F)(F)CNc1nc(NCc2ccc(-n3cncn3)cc2)nc2ccc(C#CC3CC3)nc12` [Example 287, N^2-(4-(1H-1,2,4-triazol-1-yl)benzyl)-6-(2-cyclopropyl-ethynyl)-N^4-(2,2,2-trifluoroethyl) pyrido[3,2-d]pyrimidine-2,4-diamine], in that order: more than 10000 nM and 6.60 to 7.00.
The like results for `CS(=O)(=O)c1cccc(-c2ccc3nc(NCc4ccc(-n5cncn5)cc4)nc(NCC(F)(F)Cl)c3n2)c1` [Example 196, N^2-(4-(1H-1,2,4-triazol-1-yl)benzyl)-N^4-(2-chloro-2,2-difluoroethyl)-6-(3-(methylsulfonyl)phenyl)pyrido [3,2-d]pyrimidine-2,4-diamine] were, in that order, more than 10000 nM and more than 7.00.
